# PubChem BioAssay (NCI)
#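 How tested: cells in 96-well plates exposed to compound for 48 hours at five concentrations. Abbreviation: GI50, concentration required for 50% inhibition of growth. TGI is the concentration that stops growth completely.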
# Assays:
# Assay in all cases: NCI anticancer screen, dose series, 48 h
# DLD-1 colon = tested on: DLD-1 colon
# HCC-2998 colon = tested on: HCC-2998 colon
# M14 melanoma = tested on: M14 melanoma
# OVCAR-3 ovarian = tested on: OVCAR-3 ovarian
# SK-OV-3 ovarian = tested on: SK-OV-3 ovarian
# TK-10 renal = tested on: TK-10 renal
# UACC-62 melanoma = tested on: UACC-62 melanoma
# UO-31 renal = tested on: UO-31 renal
# HS 578T breast = tested on: HS 578T breast
# M19-MEL melanoma = tested on: M19-MEL melanoma
Compound,GI50 (DLD-1 colon) [µM],TGI (DLD-1 colon) [µM],GI50 (HCC-2998 colon) [µM],TGI (HCC-2998 colon) [µM],GI50 (M14 melanoma) [µM],TGI (M14 melanoma) [µM],GI50 (OVCAR-3 ovarian) [µM],TGI (OVCAR-3 ovarian) [µM],GI50 (SK-OV-3 ovarian) [µM],TGI (SK-OV-3 ovarian) [µM],GI50 (TK-10 renal) [µM],TGI (TK-10 renal) [µM],GI50 (UACC-62 melanoma) [µM],TGI (UACC-62 melanoma) [µM],GI50 (UO-31 renal) [µM],TGI (UO-31 renal) [µM],TGI (HS 578T breast) [µM],GI50 (HS 578T breast) [µM],TGI (M19-MEL melanoma) [µM]
C1C[OH+]CCNCC[OH+]CC[OH+]CCN1.[Cl-].[Pt+4],> 100,> 100,> 100,> 100,> 100,> 100,> 100,> 100,> 100,> 100,> 100,> 100,> 100,> 100,> 100,> 100,–,–,–
CC(C)OC(=O)NNc1cc(Cl)ccc1Cl,–,–,–,> 100,–,> 100,–,> 100,–,> 100,–,> 100,–,> 100,–,> 100,> 100,–,–
N.N.N.N.[Cl-].[Co+3].[N-]=[N+]=[N-].[N-]=[N+]=[N-],> 100,> 100,> 100,> 100,> 100,> 100,> 100,> 100,> 100,> 100,> 100,> 100,> 100,> 100,41.3,> 100,–,–,–
CCC(C)(C)c1ccc(OCCCCCCN2CCNCC2)cc1,–,–,2,3.76,1.92,4.17,2.73,7.86,11.3,25.7,1.8,3.46,1.76,3.52,1.93,4.8,5.17,1.97,–
C=C1C(=O)O[C@H]2/C=C(/C)C3=CC(=O)[C@@](C)(C[C@@H](OC(=O)/C(C)=C\C)C12)O3 (some centres undefined),–,–,–,3.28,–,> 28.8,1.24,5.04,–,26,–,1.6,–,3.36,–,3.56,57.1,–,–
Oc1cn(-c2ccc(Cl)cc2)nc1-c1n[nH]c(=S)n1C1CCCCC1,–,–,2.33,14.3,0.682,38.7,< 0.0456,0.424,0.451,> 44.5,0.807,34.1,–,> 100,17,> 100,–,0.28,–
COc1ccc2c(c1)C(C)Cc1c(ncnc1-n1c(C)nc3ccccc31)N2C (centres undefined),–,–,4.09,16.4,2.62,15.4,2.53,8.79,3.53,18.5,7.28,45.9,4.83,22.3,4.59,20.7,25.3,4.12,–
Cc1c(C2=C(Br)C(=O)N(C)C2=O)c(=O)n(C)c(=O)n1C,–,–,–,53.3,–,> 100,–,> 100,–,> 100,–,31.8,–,97.9,–,33.3,> 100,–,–
CCCCC1(CN2CCOCC2)S/C(=N/c2nc(CC(=O)OCC)cs2)NC1=O (centres undefined),–,–,35.9,> 100,22.8,67.3,21.2,67.7,25.9,> 100,31.7,99.1,28.3,> 100,33,> 100,> 100,35.8,–
O=[N+]([O-])c1ccc2c(c1)C(c1ccccc1Cl)=Nc1cn[nH]c1N2,–,–,24.7,> 25,> 25,> 25,14.1,> 25,12.5,> 25,15.5,> 25,16,> 25,11.1,> 25,> 25,7.76,–
Nc1nc(SN=Nc2ccc(S(N)(=O)=O)cc2)c2[nH]cnc2n1,–,–,0.508,> 100,0.393,9,0.511,7.93,0.39,13.6,0.448,23.6,0.379,5.62,0.455,> 100,> 50.2,1.81,–
O=C(/C=C/c1cc(CN2CCOCC2)c(O)c2ncccc12)c1cc(CN2CCOCC2)c(O)c2ncccc12,–,–,0.0506,> 100,0.0506,> 64.2,0.0535,> 100,0.0348,0.357,0.0318,> 100,0.0457,–,0.0408,> 100,> 100,0.0713,–
N=C(N)SCc1cccc(-c2nc3ccccc3c(=O)o2)c1,–,–,–,> 100,–,> 100,–,> 100,–,> 100,–,> 100,–,> 100,–,> 100,> 100,–,–
CC1(C)O/C(=C\c2ccccc2)C(=O)/C(=C/c2ccccc2)O1,–,> 100,–,–,–,> 100,–,> 100,–,> 100,–,> 100,–,> 100,–,> 100,–,–,> 100
C=C1C(=O)O[C@H]2[C@H]1CC/C(COC(=O)c1ccc(Cl)nc1)=C\CC[C@@]1(C)O[C@@H]21,–,–,4.68,18,1.71,4.02,1.03,2.32,14.8,28.5,2.86,6.77,1.63,3.74,1.37,2.96,36.2,4.56,–
O=C(Nc1ccc(Br)cc1)c1ccc(Cl)c(Cl)c1,–,–,3.99,> 71.7,3.76,> 100,2.48,7.18,3.17,> 100,4.78,> 100,2.92,> 100,2.31,> 100,> 100,3.8,–
